Measurements as given in patent US12209092B2, “Inhibitors of GLI1 as therapeutic agents” (NEW YORK UNIVERSITY, priority 2018, dated 2025).
Where two headings read alike, the source gives them in different places.

Tested on: Gli1-mediated transcription
Experiment: Gli1-mediated transcriptional luciferase reporter assay
Assay type: cell-based
Protocol: Gli1-mediated transcriptional luciferase reporter assay was performed using Shh-LIGHT2 cells in order to evaluate the effects on activation and inhibition of Gli1-mediated transcription by the compounds of the disclosure. Brief assay procedure is provided below. […] Shh-LIGHT2 cells were harvested from about 80% confluent 10-cm dish using 0.25% Trypsin-EDTA solution. Medium was removed, and cells were washed with 5 mL DPBS and aspirated. Then, 1 mL 0.25% Trypsin-EDTA solution was added to a 10-cm dish. The dish was placed in the incubator for 1-3 minutes, or until cells have detached. 3 mL of cell growth medium (DMEM, 10% FBS, 1% PenStrep, 1% sodium pyruvate, and 1% GlutaMax) was added to the 10-cm dish, and the contents were transferred to a conical tube. […] The cell assay plate was removed from incubator after cells reached confluency. The culture medium was then manually removed from the cell plates, and the plates were centrifuged at 200 rpm for 30 seconds. […] After 30 min incubation of antagonist, cells were stimulated with agonist (purmorphamine, 5 μL, 1.5 μM final), then incubate for 24 h at 37° C./5% CO2. […] Luciferase assay: After incubation, the cell assay plate was allowed to acclimate to room temperature. Then, 20 μL of Duo-Glo® Luciferase Reagent (Promega) was added to each well of cell assay plate. The plate was briefly spun down, mixed, and incubated for 30 minutes at room temperature. The cell plate was read using luminometer for firefly luminescence activity. Then, 20 μL of Duo-Glo® Step&Glo® Reagent (Promega) was added to each well of cell assay plate. The plate was briefly spun down, mixed, and incubated for 30 minutes at room temperature. The cell plate was read using luminometer for Renilla luminescence activity. Ratio of firefly: Renilla luminescence was calculated for each well. The compound well ratio was normalized to the ratio from a control well.

[1] = Shh-LIGHT2 cells, antagonist mode, purmorphamine 1.5 μM stimulation, 24 h, firefly luminescence, read-out: Gli1 IC50 firefly
[2] = Shh-LIGHT2 cells, antagonist mode, purmorphamine 1.5 μM stimulation, 24 h, ratio of firefly:Renilla luminescence, read-out: Gli1 IC50 firefly:Renilla ratio

SMILES	IC50 [1]	IC50 [2]	IC50 (Shh Light2, 24 h, read-out: Gli1 IC50 firefly)	IC50 (Shh Light2, 24 h, read-out: Gli1 IC50 firefly:Renilla ratio)
Clc1ccccc1-c1nc2c([nH]1)CN(C1Cc3cccc(Cl)c3C1)CC2 (racemic) [Example 12, 5-(4-chloro-2,3-dihydro-1H-inden-2-yl)-2-(2-chlorophenyl)-4,5,6,7-tetrahydro-3H-imidazo[4,5-c]pyridine]	0.1 to 0.49 µM	0.1 to 0.49 µM	–	–
Clc1ccccc1-c1nc2c([nH]1)CN(C1CCc3cccc(Cl)c3C1)CC2 (stereo not drawn) [Example 1, 5-(8-chloro-1,2,3,4-tetrahydronaphthalen-2-yl)-2-(2-chlorophenyl)-4,5,6,7-tetrahydro-3H-imidazo[4,5-c]pyridine]	< 0.1 µM	0.1 to 0.49 µM	–	–
Clc1ccccc1-c1nc2c([nH]1)CN([C@@H]1CCc3cccc(Cl)c3C1)CC2 [Example 1-R, (R)-5-(8-chloro-1,2,3,4-tetrahydronaphthalen-2-yl)-2-(2-chlorophenyl)-4,5,6,7-tetrahydro-3H-imidazo[4,5-c]pyridine]	0.1 to 0.49 µM	0.1 to 0.49 µM	–	–
Clc1ccccc1-c1nc2c([nH]1)CN([C@H]1CCc3cccc(Cl)c3C1)CC2 [Example 1-S, (S)-5-(8-chloro-1,2,3,4-tetrahydronaphthalen-2-yl)-2-(2-chlorophenyl)-4,5,6,7-tetrahydro-3H-imidazo[4,5-c]pyridine]	0.1 to 0.49 µM	0.1 to 0.49 µM	–	–
Clc1ccccc1-c1nc2c([nH]1)CN(C1Cc3ccccc3C1)CC2 [Example 2, 2-(2-chlorophenyl)-5-(2,3-dihydro-1H-inden-2-yl)-4,5,6,7-tetrahydro-3H-imidazo[4,5-c]pyridine]	–	–	1 to 50 µM	1 to 50 µM
Clc1ccc2c(c1)CC(N1CCc3nc(-c4ccccc4Cl)[nH]c3C1)CO2 (stereo not drawn) [Example 3, 5-(6-chlorochroman-3-yl)-2-(2-chlorophenyl)-4,5,6,7-tetrahydro-3H-imidazo[4,5-c]pyridine]	0.5 to 0.99 µM	0.5 to 0.99 µM	–	–
COc1cccc(-c2nc3c([nH]2)CN(C2CCc4ccc(OC)cc4C2)CC3)c1 (stereo not drawn) [Example 4, 5-(7-methoxy-1,2,3,4-tetrahydronaphthalen-2-yl)-2-(3-methoxyphenyl)-4,5,6,7-tetrahydro-3H-imidazo [4,5-c]pyridine]	0.5 to 0.99 µM	1 to 50 µM	–	–
Fc1ccc2c(c1)CC(N1CCc3nc(-c4ccccc4F)[nH]c3C1)CC2 (stereo not drawn) [Example 5, 5-(7-fluoro-1,2,3,4-tetrahydronaphthalen-2-yl)-2-(2-fluorophenyl)-4,5,6,7-tetrahydro-3H-imidazo[4,5-c]pyridine]	1 to 50 µM	1 to 50 µM	–	–
Fc1ccccc1-c1nc2c([nH]1)CN(C1CCc3ccc(Cl)cc3C1)CC2 (stereo not drawn) [Example 6, 5-(7-chloro-1,2,3,4-tetrahydronaphthalen-2-yl)-2-(2-fluorophenyl)-4,5,6,7-tetrahydro-3H-imidazo[4,5-c]pyridine]	1 to 50 µM	1 to 50 µM	–	–
COc1ccc2c(c1)CCC(N1CCc3nc(-c4ccccc4F)[nH]c3C1)C2 (stereo not drawn) [Example 7, 2-(2-fluorophenyl)-5-(6-methoxy-1,2,3,4-tetrahydronaphthalen-2-yl)-4,5,6,7-tetrahydro-3H-imidazo[4,5-c]pyridine]	1 to 50 µM	1 to 50 µM	–	–
COc1ccc2c(c1)CC(N1CCc3nc(-c4ccccc4F)[nH]c3C1)CC2 (stereo not drawn) [Example 8, 2-(2-fluorophenyl)-5-(7-methoxy-1,2,3,4-tetrahydronaphthalen-2-yl)-4,5,6,7-tetrahydro-3H-imidazo[4,5-c]pyridine]	1 to 50 µM	1 to 50 µM	–	–
COc1cccc2c1CC(N1CCc3nc(-c4ccccc4F)[nH]c3C1)CC2 (stereo not drawn) [Example 9, 2-(2-fluorophenyl)-5-(8-methoxy-1,2,3,4-tetrahydronaphthalen-2-yl)-4,5,6,7-tetrahydro-3H-imidazo[4,5-c]pyridine]	0.5 to 0.99 µM	1 to 50 µM	–	–
COc1cccc2c1CCC(N1CCc3nc(-c4ccccc4Cl)[nH]c3C1)C2 (stereo not drawn) [Example 10, 2-(2-chlorophenyl)-5-(5-methoxy-1,2,3,4-tetrahydronaphthalen-2-yl)-4,5,6,7-tetrahydro-3H-imidazo[4,5-c]pyridine]	0.1 to 0.49 µM	0.1 to 0.49 µM	–	–
Fc1ccccc1-c1nc2c([nH]1)CN(C1CCc3cccc(F)c3C1)CC2 (stereo not drawn) [Example 11, 5-(8-fluoro-1,2,3,4-tetrahydronaphthalen-2-yl)-2-(2-fluorophenyl)-4,5,6,7-tetrahydro-3H-imidazo[4,5-c]pyridine]	1 to 50 µM	1 to 50 µM	–	–
Clc1ccc2c(c1)CC(N1CCc3nc(-c4ccccc4Cl)[nH]c3C1)CC2 (stereo not drawn) [Example 13, 5-(7-chloro-1,2,3,4-tetrahydronaphthalen-2-yl)-2-(2-chlorophenyl)-4,5,6,7-tetrahydro-3H-imidazo[4,5-c]pyridine]	0.1 to 0.49 µM	0.1 to 0.49 µM	–	–
OC1c2c(Cl)cccc2CCC1N1CCc2nc(-c3ccccc3Cl)[nH]c2C1 (stereo not drawn) [Example 14, 8-chloro-2-(2-(2-chlorophenyl)-3,4,6,7-tetrahydro-5H-imidazo[4,5-c]pyridin-5-yl)-1,2,3,4-tetrahydronaphthalen-1-ol]	1 to 50 µM	1 to 50 µM	–	–
COc1ccc2c(c1)CC(N1CCc3nc(-c4ccccc4Cl)[nH]c3C1)CC2 (stereo not drawn) [Example 15, 2-(2-chlorophenyl)-5-(7-methoxy-1,2,3,4-tetrahydronaphthalen-2-yl)-4,5,6,7-tetrahydro-3H-imidazo[4,5-c]pyridine]	0.1 to 0.49 µM	0.1 to 0.49 µM	–	–
COc1cccc2c1CC(N1CCc3nc(-c4ccccc4Cl)[nH]c3C1)CC2 (stereo not drawn) [Example 16, 2-(2-chlorophenyl)-5-(8-methoxy-1,2,3,4-tetrahydronaphthalen-2-yl)-4,5,6,7-tetrahydro-3H-imidazo[4,5-c]pyridine]	< 0.1 µM	0.1 to 0.49 µM	–	–

Second part, led by results:

IC50 [1]	IC50 [2]	SMILES	IC50 (Shh Light2, 24 h, read-out: Gli1 IC50 firefly)	IC50 (Shh Light2, 24 h, read-out: Gli1 IC50 firefly:Renilla ratio)
1 to 50 µM	1 to 50 µM	O[C@H]1c2cc(Cl)ccc2C[C@@H]1N1CCc2nc(-c3ccccc3Cl)[nH]c2C1 (relative stereo) [Example 99, trans-6-chloro-2-(2-(2-chlorophenyl)-3,4,6,7-tetrahydro-5H-imidazo[4,5-c]pyridin-5-yl)-2,3-dihydro-1H-inden-1-ol]	–	–
0.5 to 0.99 µM	1 to 50 µM	Clc1cnccc1-c1nc2c([nH]1)CN(C1CCc3cccc(Cl)c3C1)CC2 (stereo not drawn) [Example 17, 5-(8-chloro-1,2,3,4-tetrahydronaphthalen-2-yl)-2-(3-chloropyridin-4-yl)-4,5,6,7-tetrahydro-3H-imidazo[4,5-c]pyridine]	–	–
1 to 50 µM	1 to 50 µM	Cn1c(-c2ccccc2Cl)nc2c1CN(C1CCc3cccc(Cl)c3C1)CC2 (stereo not drawn) [Example 18, 5-(8-chloro-1,2,3,4-tetrahydronaphthalen-2-yl)-2-(2-chlorophenyl)-3-methyl-4,5,6,7-tetrahydro-3H-imidazo[4,5-c]pyridine]	–	–
< 0.1 µM	< 0.1 µM	CN1C2=C(CCN([C@@H]3CCc4cccc(Cl)c4C3)C2)NC1c1ccccc1Cl (stereo partly drawn) [Example 18-R, 5-((R)-8-chloro-1,2,3,4-tetrahydronaphthalen-2-yl)-2-(2-chlorophenyl)-3-methyl-2,3,4,5,6,7-hexahydro-1H-imidazo[4,5-c]pyridine]	–	–
0.1 to 0.49 µM	0.1 to 0.49 µM	CN1C2=C(CCN([C@H]3CCc4cccc(Cl)c4C3)C2)NC1c1ccccc1Cl (stereo partly drawn) [Example 18-S, 5-((S)-8-chloro-1,2,3,4-tetrahydronaphthalen-2-yl)-2-(2-chlorophenyl)-3-methyl-2,3,4,5,6,7-hexahydro-1H-imidazo[4,5-c]pyridine]	–	–
0.1 to 0.49 µM	0.1 to 0.49 µM	Clc1ccc2c(c1)CC(N1CCc3nc(-c4ccccc4Cl)[nH]c3C1)C2 (stereo not drawn) [Example 19, 5-(5-chloro-2,3-dihydro-1H-inden-2-yl)-2-(2-chlorophenyl)-4,5,6,7-tetrahydro-3H-imidazo[4,5-c]pyridine]	–	–
1 to 50 µM	1 to 50 µM	O[C@@H]1Cc2ccccc2C[C@H]1N1CCc2nc(-c3ccccc3Cl)[nH]c2C1 [Example 20, (2R,3R)-3-(2-(2-chlorophenyl)-3,4,6,7-tetrahydro-5H-imidazo[4,5-c]pyridin-5-yl)-1,2,3,4-tetrahydronaphthalen-2-ol]	–	–
0.5 to 0.99 µM	0.5 to 0.99 µM	Clc1ccc2c(c1)CC(N1CCc3nc(-c4cccc(Cl)c4Cl)[nH]c3C1)CC2 (stereo not drawn) [Example 21, 5-(7-chloro-1,2,3,4-tetrahydronaphthalen-2-yl)-2-(2,3-dichlorophenyl)-4,5,6,7-tetrahydro-3H-imidazo[4,5-c]pyridine]	–	–
0.5 to 0.99 µM	0.1 to 0.49 µM	Fc1ccc(-c2nc3c([nH]2)CN(C2CCc4ccc(Cl)cc4C2)CC3)c(Cl)c1 (stereo not drawn) [Example 22, 5-(7-chloro-1,2,3,4-tetrahydronaphthalen-2-yl)-2-(2-chloro-4-fluorophenyl)-4,5,6,7-tetrahydro-3H-imidazo[4,5-c]pyridine]	–	–
